Measurements as given in patent US20260240846A1, “ZAK ALPHA KINASE (MAP3K20) INHIBITORS FOR USE IN THE TREATMENT OF ANEMIA” (UNIVERSIDAD DE MURCIA, priority 2023, published 2026).

Columns and labels:
[1] = tested on: K562 cells; assay: Transcriptomic analysis (RNA seq) and RT-qPCR of erythroid genes in K562 cells; assay type: cell-based, human
Protocol: FIG. 12. Nilotinib promotes an erythroid gene expression profile in human K562 cells. K562 cells were pretreated with the indicated concentrations of 0.1 μM nilotinib, for 24 h and then differentiated with 50 μM hemin for additional 24 h. RNA was extracted and transcriptomic analysis performed by RNA seq. (A) Heatmap of selected erythroid genes. (B) Validation of nilotinib-induced erythroid genes by RT-qPCR. Each dot represents a biological replicate and the mean±SEM for each group is also shown.

[2] = tested on: HSPCs from DBA patients; assay: Colony assay of PBMCs from DBA patients in methylcellulose medium; assay type: cell-based, human; conditions: 2 weeks, indicated concentrations (FIG. 13A)
Protocol: FIG. 13. […] PBMCs from DBA patients were incubated for 2 weeks in human methylcellulose complete medium at 37° C. in the presence or absence of the indicated concentrations of nilotinib, imatinib, dasatinib, bosutinib and ponatinib, and the number of erythroid (A) and myeloid (B) colonies counted using standard morphological criteria. Each dot represents one patient and the means±SEM for each group is also shown.

[3] = tested on: primary CD34+/CD133+ HSPCs from healthy donors; assay: Erythroid differentiation of primary CD34+/CD133+ HSPCs with EPO (flow cytometry CD235a/CD71); assay type: cell-based, human; conditions: 0.1 μM nilotinib from 3 to 7 d or 7 to 10 d of culture
Protocol: (§1) FIG. 8. Nilotinib promotes erythropoiesis of primary CD34^+/CD133^+ HSPCs from healthy donors. (A) Primary human CD34^+/CD133^+ cells were differentiated with erythropoietin (EPO) and 0.1 μM nilotinib was added from 3 to 7 d of culture and the number of life cells calculated by the trypan blue exclusion assay. (B, C) Cells were stained with anti-CD235a-APC and anti-CD71-FITC, and erythroid differentiation was then analyzed by flow cytometry. Representative dot plots at different differentiation times (B) and overlapped histogram of CD235a at 7 d and the mean fluorescence intensity (MFI) at different differentiation times (C) are shown.
as §1, with “FIG. 9.” for “FIG. 8.”, “with EPO” for “with erythropoietin (EPO)”, “from 7” for “from 3”, “to 10” for “to 7”, “at 10” for “at 7”, “shown. […]” for “shown.”

[4] = tested on: bone marrow mononuclear cells of a DBA patient with a RPS19 mutation; assay: Colony assay of BMMCs from a DBA patient in methylcellulose medium; assay type: cell-based, human; conditions: 2 weeks
Protocol: FIG. 6. NLRP1 is activated by phosphorylation of the linker domain after activation of ZAKα and pharmacological inhibition of this signaling pathway promotes erythropoiesis in DBA. (A-D) Number of neutrophils (A-C), and caspase-1 activity (D) in 2 dpf larvae obtained by injection of one-cell stage embryos with human NLRP1 (wild type-WT, S107A and S107D) and treated from 1 to 2 dpf by bath immersion with 1 μM nilotinib (B-D). Representative images of neutrophils (arrows) are also shown in C. (E, F) BMMCs from a DBA patient were incubated for 2 weeks in human methylcellulose complete medium at 37° C. in the presence or absence of the indicated concentrations of nilotinib, and colonies were counted using standard morphological criteria. Each dot represents one individual and the mean±SEM for each group is also shown. P values were calculated by one-way ANOVA and Tukey's multiple range test. n.s., non-significant; *P<0.05; **P<0.01; ***P<0.001; ****P<0.0001.
Bone marrow aspirates were collected at the Hospital General Universitario José Maria Morales Meseguer under CEIC approval number EST: 12/16. […] BMMCs were incubated in methylcellulose medium at 37° C. in a 5% CO2-humidified atmosphere in the presence of DMSO or nilotinib (0.01 and 0.1 μM), and colonies were counted at day 9 and 14 using standard morphological criteria.

[5] = tested on: RPS19-deficient CD34+ cells; assay: Human RPS19-edited model of DBA: erythroid differentiation with EPO; assay type: cell-based; conditions: EPO 13 days, 0.1 μM nilotinib (FIGS. 14A-14C)
Protocol: FIG. 14. Nilotinib promotes erythropoiesis in a human RPS19-edited model of DBA. RPS19 gene was edited in primary human CD34^+/CD133^+ cells with CRISPR-Cas9 technology and the cells were then differentiated with EPO for 13 days in the presence of absence of 0.1 μM nilotinib. (A) Representative flow cytometry dot plots of CD235-APC vs. CD71-FITC from control and RPS19-edited cells at 13 days of differentiation with EPO. (B) Cell surface expression of CD235A from control (mock) and RPS19-deficient cells treated with DMSO or nilotinib. (C) Percentage of mature erythrocytes (CD71^−/CD235A^+) vs. percentage of erythroid progenitors (CD71^+/CD235A^−) in RPS19-deficient cells treated with DMSO or 0.1 μM nilotinib. (D) CASP1 activity of control and RPS19-deficient cells treated with DMSO or 0.1 μM nilotinib. MFI, mean fluorescence intensity.

[6] = molecular target: ZAKα (Homo sapiens, UniProt Q9NYL2); conditions: cited from earlier work
Sequence of ZAKα (Q9NYL2 whole entry): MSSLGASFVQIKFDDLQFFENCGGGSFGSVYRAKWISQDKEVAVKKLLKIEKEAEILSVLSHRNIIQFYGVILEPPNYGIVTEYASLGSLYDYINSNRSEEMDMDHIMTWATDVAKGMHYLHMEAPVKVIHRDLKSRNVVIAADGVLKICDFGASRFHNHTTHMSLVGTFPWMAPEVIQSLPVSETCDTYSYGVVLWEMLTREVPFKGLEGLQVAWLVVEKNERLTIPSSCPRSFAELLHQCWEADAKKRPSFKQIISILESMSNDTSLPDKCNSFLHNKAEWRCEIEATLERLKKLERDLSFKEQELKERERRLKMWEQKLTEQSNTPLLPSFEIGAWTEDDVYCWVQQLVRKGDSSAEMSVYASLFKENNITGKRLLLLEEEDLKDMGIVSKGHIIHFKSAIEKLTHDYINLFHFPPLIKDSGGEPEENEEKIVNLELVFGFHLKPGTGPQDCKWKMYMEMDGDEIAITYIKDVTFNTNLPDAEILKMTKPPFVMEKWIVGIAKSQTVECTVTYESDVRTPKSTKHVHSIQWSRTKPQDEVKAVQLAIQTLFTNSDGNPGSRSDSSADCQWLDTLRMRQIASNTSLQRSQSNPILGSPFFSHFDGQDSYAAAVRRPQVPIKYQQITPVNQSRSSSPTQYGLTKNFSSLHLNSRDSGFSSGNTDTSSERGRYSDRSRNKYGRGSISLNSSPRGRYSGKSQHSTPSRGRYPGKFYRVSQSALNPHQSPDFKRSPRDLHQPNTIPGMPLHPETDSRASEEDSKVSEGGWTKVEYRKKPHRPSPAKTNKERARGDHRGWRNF

Cc1cn(-c2cc(NC(=O)c3ccc(C)c(Nc4nccc(-c5cccnc5)n4)c3)cc(C(F)(F)F)c2)cn1 [nilotinib]
transcript levels of erythroid genes (RT-qPCR) ([1]; K562 cells incubated with nilotinib): increased transcript levels
expression of erythroid genes (transcriptomic analysis) ([1]; K562 cells, 0.1 μM nilotinib 24 h, control cells and upon hemin 24 h, RNA seq): robustly induced
defective erythropoiesis of HSPCs from DBA patients (erythroid colonies) [2]: alleviated defective erythropoiesis
erythropoiesis of primary CD34+/CD133+ HSPCs [3]: accelerated erythropoiesis
number of erythroid colonies ([4]; nilotinib 0.01 and 0.1 μM (FIG. 6E)): strongly increased
number of myeloid colonies ([4]; nilotinib 0.01 and 0.1 μM (FIG. 6F)): not affected
defective erythropoiesis of RPS19-deficient CD34+ cells [5]: rescued defective erythropoiesis
affinity for ZAKα [6]: high affinity
